Where a name gives a salt, the structure may show the parent alone. Read-outs that look alike come from different tables or passages of the source. Marks after values point to notes of the source that are not given here.
What was measured:
[1] = Form stability at ambient conditions for one week (XRPD); assay type: physicochemical
From the text: Some of the samples generated in the antisolvent crystallization experiments were mixtures of Pattern B, Pattern C, and Pattern D. These samples were left at ambient conditions for one week, then analyzed again by XRPD.
Pure Pattern B was generated in the antisolvent crystallization with MIBK and heptane. […] The solids were scraped from the XRPD plate and used for simultaneous TGA/DSC analysis. […] After the solids required for the TGA/DSC analysis were transferred to the pan, the remainder of the solids were re-pressed to the XRPD sample plate and analyzed again.

[2] = Stability of crystalline forms at 40° C. and 75% relative humidity (XRPD, HPLC purity); conditions: for Change by XRPD after storage / Degradation by HPLC purity analysis after storage: 40° C., 75% relative humidity
Method: Approximately 10 mg of the Crystalline Pattern D of Compound I Maleate, 20 mg of the Crystalline Pattern C of Compound I Maleate, and 10 mg of the Crystalline Pattern E of Compound I Mandelate were weighed into open 4 mL vials that were placed into a 20 mL vial containing a saturated NaCl solution. The vial was sealed and kept at 40° C. for 7 days, creating an atmosphere at 75% relative humidity in the system. After 7 days, the materials were sampled and plated for XRPD analysis.
The stability test was repeated on Patterns C and D of Compound I Maleate for 11 days.

[3] = Solubility of solid state forms in solvents (gravimetric or solvent addition); assay type: physicochemical
Method: The solubility of certain solid state forms of Compound I was determined in various solvents by either gravimetric solubility or solvent addition.
About 25 mg of compound was weighed into vials. Approximately 5 vol. (0.125 mL) of solvent was added to the solids and the mixtures stirred at the designated temperature (RT or 50° C.). Solutions were noted and an additional 0.125 mL of solvent was added to the slurries. […] If a thicker slurry was noted, 0.25 mL of solvent was added (total volume 0.5 mL). If a thick slurry was again noted, an additional 0.25 mL of solvent was added (total volume 0.75 mL). After stirring for 2 days, the slurries were centrifuged, the supernatant was collected into preweighed vials, and the solvent evaporated at 50° C. (ambient pressure) without stirring. The vials containing the solid residues were dried in a vacuum oven at 50 C, 10^−2-10^−1 Torr, for 3 h before weighing again to determine the mass of solid that was dissolved in the supernatant (i.e. mg solid/mL solvent).
About 20 mg of compound was weighed into vials. Solvent was added in aliquots and stirred at the designated temperature until complete dissolution was observed. This measurement gave a solubility range.

[4] = Dynamic vapor sorption (DVS); assay type: physicochemical
Method: DVS was performed using a DVS Intrinsic 1. The sample (20-25 mg) was loaded into a sample pan, suspended from a microbalance and exposed to a humidified stream of nitrogen gas. The sample was held for a minimum of 5 min at each level and only progressed to the next humidity level if there was <0.002% change in weight between measurements (interval: 60 s) or 240 min had elapsed. The following program was used: • 1. Equilibration at 50% RH • 2. 50% to 2%. (50%, 40%, 30%, 20%, 10%, and 2%) • 3. 2% to 95% (2%, 10%, 20%, 30%, 40%, 50%, 60%, 70%, 80%, 90%, and 95%) • 4. 95% to 2% (95%, 80%, 70%, 60%, 50%, 40%, 30%, 20%, 10%, and 2%) • 5. 2% to 50% (2%, 10%, 20%, 30%, 40%, and 50%)

[5] = Solubility in simulated fluids and water; assay type: physicochemical; conditions: 37° C.
Method: Calibration samples for solubility in simulated fluids were prepared with freebase Compound I.
Solubility in simulated fluids were studied with the mandelate and maleate solids. The simulated fluids FaSSIF (fasted-state intestinal), FaSSGF (fasted-state gastric), and FeSSIF (fed-state intestinal) were removed from the refrigerator, warmed to room temperature, and the pH of each was measured. Between 1.9 and 2.0 mg of each salt was weighed into four vials and 1 mL of each fluid was added, including water. Stir bars (10 mm) were added to the vials and the vials were stirred at 37° C. After 30 mi (mandelate samples) or 1 h (maleate samples), the pH of each solution was measured, then 400 μL of each was removed and syringe filtered with 0.45 µm syringe filters. Approximately 300 μL of the recovered filtrate was diluted 5× with diluent and injected for HPLC analysis. The remainder of the samples in the vials were allowed to stir overnight. After 24 h stirring at 37° C., samples were filtered and diluted as before, and injected for analysis.

CCOc1ccccc1-c1ccc(N2CCN(C(=O)C3(C(F)(F)F)CCC3)C[C@H]2CC)c(C(=O)N[C@@H]2CN3CCC2CC3)n1 [Pattern D Maleate, N-[(3S)-1-azabicyclo[2.2.2]octan-3-yl]-6-(2-ethoxyphenyl)-3-[(2R)-2-ethyl-4-[1-(trifluoromethyl)-cyclobutanecarbonyl]piperazin-1-yl]pyridine-2-carboxamide maleate]
Form conversion by XRPD at ambient conditions [1]: no observable conversion
Change by XRPD after storage ([2]; 7 days): No visible change
Degradation by HPLC purity analysis after storage ([2]; 7 days): no degradation
Change by XRPD after storage ([2]; 11 days): No visible change
Degradation by HPLC purity analysis after storage ([2]; 11 days): no degradation
Stability on storage (in words) ([2]; over a week at 40° C. and 75% RH): stable
Solubility (in words) ([3]; EtOAc and MIBK at RT and 50° C.): freely soluble and soluble
solubility ([3]; EtOAc, 50 °C, organic solvent or mixture, thermodynamic from solid, EtOAc, 50° C., read-out: Solubility): 68000 µg/mL
solubility ([3]; EtOAc, RT, maleate): 43^d mg/mL
solubility ([3]; EtOH, RT, maleate): >50^a mg/mL
solubility ([3]; EtOH:MtBE (1:9 vol.), organic solvent or mixture, thermodynamic from solid, EtOH:MtBE (1:9 vol.), RT, read-out: Solubility): 4000 µg/mL
solubility ([3]; EtOH:MtBE (3:7 vol.), organic solvent or mixture, thermodynamic from solid, EtOH:MtBE (3:7 vol.), RT, read-out: Solubility): 51000 µg/mL
Solubility (in words) ([3]; IP at RT): soluble
Behaviour in solvent (in words) ([3]; IPA, 50° C.): a slurry could not be maintained
solubility ([3]; IPA, organic solvent or mixture, thermodynamic from solid, IPA, RT, read-out: Solubility): 68000 µg/mL
solubility ([3]; IPA:MtBE (1:1 vol.), organic solvent or mixture, thermodynamic from solid, IPA:MtBE (1:1 vol.), RT, read-out: Solubility): 10000 µg/mL
solubility ([3]; IPA:MtBE (1:9 vol.), organic solvent or mixture, thermodynamic from solid, IPA:MtBE (1:9 vol.), RT, read-out: Solubility): < 3000 µg/mL
solubility ([3]; IPA:MtBE (3:7 vol.), organic solvent or mixture, thermodynamic from solid, IPA:MtBE (3:7 vol.), RT, read-out: Solubility): 7000 µg/mL
solubility ([3]; IPA:water (9:1 vol.), organic solvent or mixture, thermodynamic from solid, IPA:water (9:1 vol.), RT, read-out: Solubility): > 333000 µg/mL
solubility ([3]; IPAc, 50 °C, organic solvent or mixture, thermodynamic from solid, IPAc, 50° C., read-out: Solubility): 13000 µg/mL
solubility ([3]; IPAc, organic solvent or mixture, thermodynamic from solid, IPAc, RT, read-out: Solubility): 7000 µg/mL
solubility ([3]; MEK, RT, maleate): >50^a mg/mL
solubility ([3]; MIBK, 50 °C, organic solvent or mixture, thermodynamic from solid, MIBK, 50° C., read-out: Solubility): 65000 µg/mL
solubility ([3]; MIBK, RT, maleate): 43^c mg/mL
solubility ([3]; MeOAc, 50 °C, organic solvent or mixture, thermodynamic from solid, MeOAc, 50° C., read-out: Solubility): > 250000 µg/mL
solubility ([3]; MeOAc, organic solvent or mixture, thermodynamic from solid, MeOAc, RT, read-out: Solubility): 168000 µg/mL
solubility ([3]; MeOAc:MtBE (1:1 vol.), organic solvent or mixture, thermodynamic from solid, MeOAc:MtBE (1:1 vol.), RT, read-out: Solubility): 17000 µg/mL
solubility ([3]; MeOAc:MtBE (1:9 vol.), organic solvent or mixture, thermodynamic from solid, MeOAc:MtBE (1:9 vol.), RT, read-out: Solubility): 3000 µg/mL
solubility ([3]; MeOAc:MtBE (3:7 vol.), organic solvent or mixture, thermodynamic from solid, MeOAc:MtBE (3:7 vol.), RT, read-out: Solubility): 7000 µg/mL
solubility ([3]; MeOH, RT, maleate): >50^a mg/mL
solubility ([3]; MtBE, 50 °C, organic solvent or mixture, thermodynamic from solid, MtBE, 50° C., read-out: Solubility): < 3000 µg/mL
solubility ([3]; MtBE, RT, maleate): <3^c mg/mL
solubility ([3]; THF, RT, maleate): >50^a mg/mL
solubility ([3]; acetone, RT, maleate): >50^a mg/mL
solubility ([3]; diethyl ether, organic solvent or mixture, thermodynamic from solid, diethyl ether, RT, read-out: Solubility): 4000 µg/mL
Solubility (in words) ([3]; heptane, diethyl ether, and MtBE): insoluble
solubility ([3]; n-heptane, 50 °C, organic solvent or mixture, thermodynamic from solid, n-heptane, 50° C., read-out: Solubility): < 3000 µg/mL
solubility ([3]; n-heptane, RT, maleate): <3^c mg/mL
Hygroscopicity (in words) ([4]; DVS): slightly hygroscopic
Change by XRPD following the DVS analysis ([4]; after DVS from 2 to 95% RH): No change
Reversible mass gain (DVS) ([4]; from 2 to 95% relative humidity): 1.14 wt. %
Behaviour at high humidity ([4]; high humidity): stable
solubility at 1 h ([5]; FaSSGF (fasted-state simulated gastric fluid), pH 1.49, fassgf or other biorelevant, thermodynamic from solid, FaSSGF, 1 h): > 2500 µg/mL
solubility at 24 h ([5]; FaSSGF (fasted-state simulated gastric fluid), pH 1.49, fassgf or other biorelevant, thermodynamic from solid, FaSSGF, 24 h): > 2500 µg/mL
Sample pH ([5]; FaSSGF (initial pH 1.49), 1 h): 4.66
Sample pH ([5]; FaSSGF (initial pH 1.49), 24 h): 5.07
solubility at 24 h ([5]; FaSSIF (fasted-state simulated intestinal fluid), pH 6.35, thermodynamic from solid, FaSSIF, 24 h): 1470 µg/mL
solubility at 1 h ([5]; FaSSIF (fasted-state simulated intestinal fluid), thermodynamic from solid, FaSSIF, 1 h): 1500 µg/mL
Sample pH ([5]; FaSSIF (initial pH 6.35), 1 h): 6.23
Sample pH ([5]; FaSSIF (initial pH 6.35), 24 h): 6.92
Solids recovered from the solubility experiment (appearance, XRPD) ([5]; FaSSIF, after 24 h): oily and appeared as amorphous
solubility at 1 h ([5]; FeSSIF (fed-state simulated intestinal fluid), pH 4.83, thermodynamic from solid, FeSSIF, 1 h): > 2500 µg/mL
solubility at 24 h ([5]; FeSSIF (fed-state simulated intestinal fluid), pH 4.83, thermodynamic from solid, FeSSIF, 24 h): > 2500 µg/mL
Sample pH ([5]; FeSSIF (initial pH 4.83), 1 h): 1.50
Sample pH ([5]; FeSSIF (initial pH 4.83), 24 h): 1.85
solubility at 1 h ([5]; thermodynamic from solid, water, 1 h): > 2500 µg/mL
solubility at 24 h ([5]; thermodynamic from solid, water, 24 h): > 2500 µg/mL
Sample pH ([5]; water, 1 h): ~6.35
Sample pH ([5]; water, 24 h): 5.60
